Results reported in publication PMC7925462, “A synthetic peptide as an allosteric inhibitor of human arginase I and II” (Molecular Biology Reports, 2021).
Like-named read-outs stand apart in the source and are kept apart here. Values belong to the molecule of their own block, whether it stands above or below them. Ends that are not written are not given here.

What was measured:
[1] = target: T1, human arginase I (wild-type hargI, His6-tagged) (Homo sapiens, UniProt P05089); test: MST binding assay, hargI
T1 construct: TEV protease site and linker (N); made in house; host or cells: E. coli BL21 (DE3) RIL
T1 sequence (P05089 with tags, fused parts or gaps): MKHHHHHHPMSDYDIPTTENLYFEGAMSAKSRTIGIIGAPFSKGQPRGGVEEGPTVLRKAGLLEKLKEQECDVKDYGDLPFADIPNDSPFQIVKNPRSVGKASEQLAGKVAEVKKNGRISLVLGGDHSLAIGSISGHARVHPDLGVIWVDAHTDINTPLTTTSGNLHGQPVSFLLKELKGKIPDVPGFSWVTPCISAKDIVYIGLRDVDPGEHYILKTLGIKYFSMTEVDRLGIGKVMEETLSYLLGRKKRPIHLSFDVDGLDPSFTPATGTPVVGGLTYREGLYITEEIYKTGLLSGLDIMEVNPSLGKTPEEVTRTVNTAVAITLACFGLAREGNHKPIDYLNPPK
Description: Microscale thermophoresis (MST)
MST measurements were performed on a Monolith NT.115 instrument (Nanotemper Technologies, GmbH). Purified His6-tagged hargI sample was labeled with the Monolith His-Tag Labeling Kit RED-tris-NTA (MO-L008) according to the protocol (Nanotemper Technologies, GmbH). All measurements were performed in triplicate in MST buffer (25 mM Tris-HCl pH 7.5, 125 mM NaCl, 1% Glycerol and 1 mM BME, 0.05% Tween-20) using standard capillaries (K002, Nanotemper Technologies, GmbH). Labeled hargI was used at a final concentration of 50 nM according to the manufacturer’s recommendations. All measurements were performed at 60% LED excitation power and 40% MST power, Laser-On time was 30 s, Laser-Off time 5 s. The peptide REGNH was titrated in 1:1 dilution starting at 2.82 μM. All binding reactions were incubated for 10 min at room temperature followed by centrifugation at 20,000 g before loading into the capillaries.
The ability of the synthetic peptide analogue (REGNH) to bind to wild-type hargI and II was examined using Microscale Thermophoresis (MST) (Nanotemper, GmbH). […] After 10 min incubation at room temperature the dose-response MST curve was measured, which yielded a clear binding curve with determined dissociation constant of 177 ± 50 μM for hargI, and 196 ± 25 μM for hargII (Fig. 2).

human arginase I (hargI) [2] = target: T2, human arginase I (hargI) (Homo sapiens, UniProt P05089); test: Dose-response of ABH on hargI in presence/absence of REGNH, L-arginine metabolism; type: biochemical
T2 construct: TEV protease site and linker (N); made in house; host or cells: E. coli BL21 (DE3) RIL
T2 sequence (P05089 with tags, fused parts or gaps): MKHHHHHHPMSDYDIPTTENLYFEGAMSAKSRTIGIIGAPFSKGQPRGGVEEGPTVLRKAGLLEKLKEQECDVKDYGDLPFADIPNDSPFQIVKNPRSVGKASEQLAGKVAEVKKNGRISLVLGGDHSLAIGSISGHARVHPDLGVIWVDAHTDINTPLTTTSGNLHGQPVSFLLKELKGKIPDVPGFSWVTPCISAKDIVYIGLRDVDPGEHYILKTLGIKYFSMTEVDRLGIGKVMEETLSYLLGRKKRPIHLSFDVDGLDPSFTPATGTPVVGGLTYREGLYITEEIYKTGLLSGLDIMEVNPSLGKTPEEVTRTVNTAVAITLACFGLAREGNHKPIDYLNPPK

[3] = system: Arg308Ala mutant of human arginase I; settings: low concentrations of guanidinium chloride, ref [17], cited from earlier work
Description: A promising avenue in arginase inhibitors research is a structural feature that shared by all mammalian arginases – the S-shaped motif at the C-terminal. The functional significance of this motif is that it accounts for 54% of intersubunit contacts. In Human Arginase I (hargI) the S-shaped motif is comprised by residues 304–322, where Arg308 is thought to play the major role, as it forms a salt bridge with Glu262. In rat liver arginase I, Arg308 also forms an intermonomer salt bridge with Asp204 from an adjacent subunit. The importance of Arg308 is supported by the di ... || The aim of the described research is to examine the effect of the peptide analogue REGNH (residue 308–312), which comprises part of the S-shape motif from the C-terminal (residue 308–322) on hargI. A previous study has shown that the C terminal tail plays a critical role in retaining trimeric protein assembly, as well as in the cooperative response of arginase in L-arginine metabolism.

[4] = system: wild-type and truncated (terminating at Arg308 or Ala308) arginase I; settings: wild-type and truncated species terminating at Arg308 or Ala308, even at higher concentrations; ref [17]; cited from earlier work
Description: A promising avenue in arginase inhibitors research is a structural feature that shared by all mammalian arginases – the S-shaped motif at the C-terminal. The functional significance of this motif is that it accounts for 54% of intersubunit contacts. In Human Arginase I (hargI) the S-shaped motif is comprised by residues 304–322, where Arg308 is thought to play the major role, as it forms a salt bridge with Glu262. In rat liver arginase I, Arg308 also forms an intermonomer salt bridge with Asp204 from an adjacent subunit. The importance of Arg308 is supported by the di ...

human arginase I (hargI) [5] = target: T2, human arginase I (hargI); test: Enzymatic assay, L-arginine hydrolysis by hargI, colorimetric urea; type: biochemical; settings: called preliminary data, read-out: IC50 (abstract)
Description: (§1) The kinetic properties of hargI and II were tested according to previously reported methods with minor modifications. The Arginases activity was assessed by colorimetric measurement of produced urea. The assays were performed in 96-well plates (Greiner) using Assay buffer [100 mM Na-phosphate pH 7.4, 130 mM NaCl]. Final volume of each reaction was 60 μl, the final concentration of hargI and hargII was 50 nM in each well. Samples containing no hargI or hargII were used as negative control. The peptide inhibitor was added based on experiment setting, dose ranging from 20 mM to 9.8 μM. Each sample was pre-incubated for 30 min in a 37 °C shaking incubator (100 rpm) and the reactions were started by adding concentrated substrate buffer [Assay buffer supplemented with 100 mM L-arginine, 500 mM Glycine and 1.25 mM MnCl2]. Reactions were performed in a shaking incubator at 37 °C and quenched after 1 h using a Stop mix. The Stop mix consisted of two volumes of freshly prepared solution A [Antipyrine/ H2SO4 reagent: 5 g/L of antipyrine(1,5-dimethyl-2-phenyl-3-pyrazolone) in 50%(v/v) sulfuric acid] and one volume solution B [Oxime reagent: 0.8 g 2,3-Butanedione monoxime in 100 ml of 5%(v/v) acetic acid]. […] The color turns to brown and changes in optical density (OD) at 466 nm reflecting the production of urea were quantified using the Synergy H1 Hybrid Reader (BioTek).

[6] = target: T3, human arginase II (hargII) (Homo sapiens, UniProt P78540); test: Enzymatic assay, L-arginine hydrolysis by hargII, colorimetric urea; type: biochemical; settings: called preliminary data, read-out: IC50 (abstract)
T3 construct: The human arginase II (aa23-354, 38.3kD) fused to a His6-tag at the N-terminal; purchased USBiological Life Science, Salem, USA
T3 sequence (P78540 23-354): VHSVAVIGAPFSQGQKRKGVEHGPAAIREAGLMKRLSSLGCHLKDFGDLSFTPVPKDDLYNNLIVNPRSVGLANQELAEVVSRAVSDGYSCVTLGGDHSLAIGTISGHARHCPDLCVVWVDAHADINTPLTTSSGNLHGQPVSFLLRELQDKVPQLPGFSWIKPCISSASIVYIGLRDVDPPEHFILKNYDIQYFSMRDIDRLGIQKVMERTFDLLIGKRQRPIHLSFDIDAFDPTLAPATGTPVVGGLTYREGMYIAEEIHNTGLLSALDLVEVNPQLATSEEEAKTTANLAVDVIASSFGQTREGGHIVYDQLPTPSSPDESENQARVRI
Description: The human arginase II (aa23-354, 38.3kD) fused to a His6-tag at the N-terminal was purchased and supplied as a liquid aliquot (20 mM Tris-HCl, pH 8.0, 10% (v/v) glycerol) at −20 °C (USBiological Life Science, Salem, USA). This stock was thaw on ice, followed by high speed centrifuging before diluting to certain concentration for activity assay.
as §1, with “MnCl2].” for “MnCl2]. Reactions were performed in a shaking incubator at 37 °C and quenched after 1 h using a Stop mix. The Stop mix consisted of two volumes of freshly prepared solution A [Antipyrine/ H2SO4 reagent: 5 g/L of antipyrine(1,5-dimethyl-2-phenyl-3-pyrazolone) in 50%(v/v) sulfuric acid] and one volume solution B [Oxime reagent: 0.8 g 2,3-Butanedione monoxime in 100 ml of 5%(v/v) acetic acid].”

human arginase I (hargI) [7] = target: T2, human arginase I (hargI); test: Kinetic assay of L-arginine metabolism in absence/presence of peptide; type: biochemical; settings: 1 mM peptide REGNH, 40 mM L-arginine
Description: as §1, with “(BioTek). […]” for “(BioTek).”

human arginase I [8] = target: T4, human arginase I (human, UniProt P05089 1-322, RED-tris-NTA dye on the His6-tag (Monolith His-Tag Labeling Kit RED-tris-NTA) in the MST assay); test: cell-based or functional assay
T4 sequence (looked up): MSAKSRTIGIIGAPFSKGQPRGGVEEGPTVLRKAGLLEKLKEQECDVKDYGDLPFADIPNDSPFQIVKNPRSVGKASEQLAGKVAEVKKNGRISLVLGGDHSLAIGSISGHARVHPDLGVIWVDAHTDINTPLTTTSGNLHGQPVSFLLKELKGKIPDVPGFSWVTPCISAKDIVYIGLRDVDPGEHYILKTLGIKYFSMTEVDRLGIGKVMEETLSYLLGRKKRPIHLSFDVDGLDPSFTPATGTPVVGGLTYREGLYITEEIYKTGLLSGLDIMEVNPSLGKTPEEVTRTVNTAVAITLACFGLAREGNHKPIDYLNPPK

[9] = target: T5, human arginase II (aa23-354, 38.3kD) (human, UniProt P78540 23-354, RED-tris-NTA dye labeled in the MST assay); test: cell-based or functional assay
T5 sequence (looked up): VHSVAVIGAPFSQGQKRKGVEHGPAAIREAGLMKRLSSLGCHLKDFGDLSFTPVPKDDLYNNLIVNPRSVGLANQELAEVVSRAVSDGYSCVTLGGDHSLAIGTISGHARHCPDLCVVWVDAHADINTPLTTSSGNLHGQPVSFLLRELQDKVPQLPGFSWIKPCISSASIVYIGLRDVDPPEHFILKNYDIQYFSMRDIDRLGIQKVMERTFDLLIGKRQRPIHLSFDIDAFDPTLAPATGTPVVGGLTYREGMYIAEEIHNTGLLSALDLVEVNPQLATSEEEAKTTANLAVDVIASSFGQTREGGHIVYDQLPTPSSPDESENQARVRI

human arginase I [10] = target: T4, human arginase I; test: MST; Monolith NT.115; His6-tagged arginase labeled with RED-tris-NTA at 50 nM, peptide REGNH titrated in 1:1 dilution; 25 mM Tris-HCl pH 7.5, 125 mM NaCl, 1% glycerol, 1 mM BME, 0.05% Tween-20; 10 min incubation at room temperature; triplicate; settings: both partners purified
[11] = target: T5, human arginase II (aa23-354, 38.3kD); test: as above; settings: both partners purified

IC50 (human arginase I (hargI) [5]): 2400 ± 300 µM
IC50 [6]: 1800 ± 100 µM
lowering of activity with respect to apo-enzyme (human arginase I (hargI) [7]): ≈ 15%
Molecule: REGNH [REGNH]

inhibition of hargI enzymatic activity (colorimetric measurement of urea from L-arginine), peptide 9.8 μM to 20 mM; IC50 (human arginase I [8]): 2400 µM
inhibition of hargII enzymatic activity (colorimetric measurement of urea from L-arginine), peptide 9.8 μM to 20 mM; IC50 [9]: 1800 µM
Kd (human arginase I [10]): 177 ± 50 µM
Kd [11]: 196 ± 25 µM
B1: synthetic peptide REGNH (peptide)
peptide: REGNH
notes: residues 308-312 of human arginase I, part of the S-shape motif of the C-terminal; Nothing is said of modified ends; also called peptide analogue; REGNH C-terminus analogue peptide; source: synthetic peptide; bought: Biomatik and TopPeptides, Shanghai

More lines, now with the values behind:

Molecule: N[C@@H](CCCCB(O)O)C(=O)O [ABH, 2-(S)-amino-6-boronohexanoic acid]
Kd ([1]; MST, ABH to hargI, MST buffer pH 7.5): ~0.6 µM
binding to hargI ([1]; dose-dependent MST assay): strong binding
IC50 (human arginase I (hargI) [2]; ABH on hargI, printed in parentheses after 'those of the apo-enzyme', the comparison is with hargI + 1 mM REGNH): 1 ± 0.03 µM
inhibition of hargI by ABH in presence of REGNH compared with apo-enzyme (human arginase I (hargI) [2]; hargI supplemented with 1 mM peptide REGNH): comparable inhibition constants to those of the apo-enzyme

Molecule: Cl.N=C(N)N [guanidinium chloride]
activity of Arg308Ala mutant with Gdn+ [3]: significantly increased activity
trimeric assembly and substrate cooperativity of Arg308Ala mutant with Gdn+ [3]: restored the trimeric assembly and substrate cooperativity
activity of Arg308Ala mutant with Gdn+ ([3]; listed as Gdn^+): significantly increased
response of wild-type and truncated species to Gdn+ [4]: not responsive
